# Measurements as given in patent US7087714B2, “Mu-Opiod receptor splice variant polypeptides” (Memorial Sloan-Kettering Cancer Center, priority 2001, dated 2006).
# What was measured:
# exon 11-containing mRNA = assay: RT-PCR of exon 11-containing mRNA in brains of mice given antisense i.c.v.; format: in vivo, mouse; conditions: 10 μg i.c.v. daily for 4 days, brain RNA on fifth day
# [1] = system: exon 11-like immunoreactivity (E11-LI); assay: Immunohistochemical labeling (exon 11-like immunoreactivity) in striatum after antisense treatment; format: in vivo, mouse; conditions: 10 μg i.c.v. daily for 4 days, perfused on fifth day; p<0.05
# MOR-1 gene = assay: In vivo antisense mapping, radiant heat tailflick assay of opioid analgesia; design: species or system mice; conditions: 5 μg oligodeoxynucleotide on days 1, 3 and 5, tailflick on day 6
Substance,lowering of the levels of exon 11 expression (RT-PCR) (exon 11-containing mRNA),downregulation of immunohistochemical labeling in the striatum compared to the control group [1],effect on spinal (i.t.) M6G analgesia (MOR-1 gene),effect on spinal (i.t.) morphine analgesia (MOR-1 gene),effect on supraspinal (i.c.v.) M6G analgesia (MOR-1 gene),effect on supraspinal (i.c.v.) morphine analgesia (MOR-1 gene),"effect on opioid (morphine or M6G) analgesia, mismatch control (MOR-1 gene)"
"antisense E11A: antisense oligodeoxynucleotide targeting exon 11: 5′GACAGTCACTGGTGCCTATGCAAT3′ (SEQ ID NO 48) (DNA, backbone not given here)",approximately 40%,over 50%,,,,,
"exon 1 probe: antisense probe targeting exon 1: 5′CGCCCCAGCCTCTTCCTCT3′ (SEQ ID NO 47) (listed as DNA, chemistry not given here)",,,inactive,not spinally,inactive,reduced,
"mismatch E11A: mismatch probe based upon the 11a antisense probe: 5′GACGATCACGTGTGCTCATGACAT3′ (SEQ ID NO 50) (listed as DNA, chemistry not given here) [reference compound]",inactive,without effect,,,,,inactivity
